Data on one compound can be found in patent US7696177B2, “Anti-hypercholesterolemic compounds” (Merck Sharp & Dohme Corp., priority 2005, dated 2010).

The test system of this assay is cholesterol absorption. Kind of assay: Cholesterol Absorption Assay in Mice. The settings on record: at the highest dose tested; oral dosing 0.12-10 mg/kg, [3H]-cholesterol counts in liver and plasma 5 h later. Format: in vivo, C57BL/6 male mice. On the procedure:
Compounds of this invention were determined to inhibit cholesterol absorption employing the Cholesterol Absorption Assay in Mice, below. This assay involves comparing a test compound to ezetimibe with respect to their ability to inhibit cholesterol absorption in mice.
Cholesterol Absorption Assay in Mice:
C57BL/6 male mice (n=6/group), aged 10-14 weeks, were dosed orally with 0.2 ml 0.25% methyl cellulose solution with or without test compound or ezetimibe (0.12-10 mg/kg). Thirty minutes later all of the mice were dosed orally with 0.2 ml […]™ containing 2 μCi [^3H]-cholesterol per mouse. Five hours later, the animals were euthanized, and liver and blood were collected. Cholesterol counts in liver and plasma were determined, and percent inhibition of cholesterol absorption was calculated.

Each structure is given as a SMILES string.

In the case of `O=C1[C@H](CC[C@H](O)c2ccc(F)cc2)[C@@H](c2ccc(O)cc2)N1c1ccc(F)cc1` [ezetimibe], the “inhibition of cholesterol absorption” value was above 90%.
